Source: the supplement of paper PMC10307832

Tests used:
Assay in all cases: relative viability (nuclei count vs DMSO), 5 days (fraction); higher = more cells survive
[1] = compound: CCOC(=O)CCNc1cc(N2CCc3ccccc3CC2)nc(-c2ccccn2)n1 [GSK-J4] + Cc1nc(Nc2ncc(C(=O)Nc3c(C)cccc3Cl)s2)cc(N2CCN(CCO)CC2)n1 [Dasatinib] (partner 0.075 µM)
Outline: (§1)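 Lung cancer cell lines in 1536-well plates were dosed by pin tool the day after seeding, either with one drug alone or with a fixed anchor-drug dose plus five library-drug doses (not always all listed) in √10 steps. After 5 days, cells were fixed and their nuclei stained in one step (final 0.05% Triton X-100, 1% formaldehyde, 1 ug/ml Hoechst), then counted on 4× images. Relative viability is the nuclei count in treated wells divided by that in vehicle wells. Values are medians of duplicate plates.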

[2] = compound: CN1CCC(CC1)OC2=CC(=C(C=C2)NC3=NC=C4C(=N3)N(C(=O)N4C)C5CCCC5)OC [AZ3146] + CC(C)C[C@H](NC(=O)[C@H](Cc1ccccc1)NC(=O)c1cnccn1)B(O)O [Bortezomib] (partner 0.002 µM)
Outline: as §1

[3] = compound: CN1CCC(CC1)OC2=CC(=C(C=C2)NC3=NC=C4C(=N3)N(C(=O)N4C)C5CCCC5)OC [AZ3146] + Cc1cc(Nc2cc(N3CCN(C)CC3)nc(Sc3ccc(NC(=O)C4CC4)cc3)n2)n[nH]1 [Tozasertib] (partner 0.1 µM)
Outline: as §1

[4] = compound: CN1CCC(CC1)OC2=CC(=C(C=C2)NC3=NC=C4C(=N3)N(C(=O)N4C)C5CCCC5)OC [AZ3146] + Nc1nc2[nH]cc(CCc3ccc(C(=O)N[C@@H](CCC(=O)O)C(=O)O)cc3)c2c(=O)[nH]1 [Pemetrexed] (partner 0.2 µM)
Outline: as §1

| Cell Line | relative viability ([1]; first compound 0.5 µM) | relative viability ([1]; first compound 1.581 µM) | relative viability ([1]; first compound 5 µM) | relative viability ([1]; first compound 15.81 µM) | relative viability ([1]; first compound 50 µM) | relative viability ([2]; first compound 0.08 µM) | relative viability ([2]; first compound 0.253 µM) | relative viability ([2]; first compound 0.8 µM) | relative viability ([2]; first compound 2.53 µM) | relative viability ([2]; first compound 8 µM) | relative viability ([3]; first compound 0.08 µM) | relative viability ([3]; first compound 0.253 µM) | relative viability ([3]; first compound 0.8 µM) | relative viability ([3]; first compound 2.53 µM) | relative viability ([3]; first compound 8 µM) | relative viability ([4]; first compound 0.08 µM) | relative viability ([4]; first compound 0.253 µM) | relative viability ([4]; first compound 0.8 µM) | relative viability ([4]; first compound 2.53 µM) | relative viability ([4]; first compound 8 µM) |
| --- | --- | --- | --- | --- | --- | --- | --- | --- | --- | --- | --- | --- | --- | --- | --- | --- | --- | --- | --- | --- |
| NCI-H1355 | 0.749 | 0.654 | 0.342 | 0.538 | 0.675 | 1.09 | 1.19 | 1.17 | 1.25 | 1.28 | 0.371 | 0.573 | 0.485 | 0.404 | 0.359 | 1.02 | 1.02 | 1.03 | 1.12 | 1.13 |
| NCI-H1437 | 0.426 | 0.438 | 0.353 | 0.307 | 0.126 | 0.497 | 0.441 | 0.469 | 0.535 | 0.479 | 0.355 | 0.42 | 0.394 | 0.354 | 0.265 | 0.283 | 0.327 | 0.3 | 0.346 | 0.294 |
| NCI-H1650 | 0.34 | 0.261 | 0.372 | 0.283 | 0.314 | 0.204 | 0.226 | 0.205 | 0.168 | 0.2 | 0.345 | 0.349 | 0.242 | 0.314 | 0.255 | 0.323 | 0.324 | 0.366 | 0.376 | 0.386 |
| NCI-H1651 | 0.537 | 0.306 | 0.367 | 0.443 | 0.477 | 0.827 | 1.02 | 0.995 | 0.921 | 0.969 | 0.597 | 0.793 | 0.465 | 0.552 | 0.297 | 0.58 | 0.579 | 0.463 | 0.569 | 0.595 |
| NCI-H1666 | 0.774 | 0.879 | 0.526 | 0.802 | 0.536 | 0.838 | 0.791 | 0.948 | 0.809 | 0.743 | 0.473 | 0.527 | 0.442 | 0.463 | 0.338 | 0.771 | 0.825 | 0.83 | 0.901 | 0.788 |
| NCI-H1734 | 0.405 | 0.454 | 0.378 | 0.396 | 0.468 | 0.98 | 1.03 | 0.895 | 0.992 | 0.834 | 0.225 | 0.264 | 0.279 | 0.275 | 0.29 | 0.414 | 0.433 | 0.388 | 0.428 | 0.413 |
| NCI-H1755 | 0.367 | 0.406 | 0.246 | 0.364 | 0.361 | 1.03 | 0.996 | 0.921 | 1.04 | 0.667 | 0.519 | 0.696 | 0.678 | 0.766 | 0.588 | 0.666 | 0.532 | 0.463 | 0.509 | 0.496 |
| NCI-H1915 | 0.342 | 0.36 |  | 0.316 | 0.352 | 0.933 | 1.01 | 0.502 | 0.955 | 0.973 | 0.409 | 0.483 | 0.367 | 0.381 | 0.351 | 0.502 | 0.517 | 0.602 | 0.511 | 0.49 |
| NCI-H1975 | 0.335 | 0.361 | 0.253 | 0.267 | 0.284 | 0.36 | 0.425 | 0.383 | 0.384 | 0.256 | 0.684 | 0.732 | 0.275 | 0.208 | 0.227 | 0.312 | 0.311 | 0.294 | 0.295 | 0.244 |
| NCI-H1993 | 0.613 | 0.649 | 0.716 | 0.52 | 0.43 | 1.05 | 1.07 | 1.19 | 1.2 | 0.976 | 0.544 | 0.548 | 0.6 | 0.544 | 0.51 | 0.567 | 0.542 | 0.539 | 0.619 | 0.561 |
| NCI-H2009 | 0.298 | 0.276 | 0.166 | 0.265 | 0.189 | 0.824 | 1.08 | 1.05 | 1.04 | 0.636 | 0.669 | 0.689 | 0.463 | 0.557 | 0.434 | 1.05 | 0.996 | 1.04 | 0.989 | 1.03 |
| NCI-H2023 | 0.49 |  | 0.529 | 0.48 | 0.428 | 0.938 | 1.05 | 1.03 | 0.997 | 0.268 | 0.331 | 0.328 | 0.171 | 0.157 | 0.147 | 0.207 | 0.238 | 0.226 | 0.216 | 0.129 |
| NCI-H2085 | 0.288 | 0.273 | 0.388 | 0.223 | 0.377 | 1 | 1.09 | 0.962 | 1.18 | 0.952 | 0.747 | 0.786 | 0.727 | 0.587 | 0.508 | 0.923 | 0.824 | 0.869 | 0.887 | 0.705 |
